# Data: publication PMC10991380, “Cloning, functional expression, and pharmacological characterization of inwardly rectifying potassium channels (Kir) from Apis mellifera” (Scientific Reports, 2024)
# How the values were obtained:
# Test in all cases: two-electrode voltage clamp, Xenopus oocytes
# Type in all cases: cell-based, Apis mellifera
# Conditions in all cases: 96 mM KCl Ringer, pH 7.6; holding potential -80 mV; VU041 in DMSO
# AmKir2.3 = tested on: T1, AmKir2.3
# T1 construct: homotetramer; N-terminal tail 31 residues shorter than AmKir2.2
# AmKir2.2 = tested on: T2, AmKir2.2
# T2 construct: homotetramer; N-terminal tail 31 residues longer than AmKir2.3
# AmKir1.1 = tested on: T3, AmKir1.1
# T3 construct: homotetramer; longer N-terminal and shorter C-terminal tail than AmKir2
structure (smiles),measurement,setting,value
O=C(Cn1nc(C(F)(F)F)c2c1CCCC2)N1CCCc2ccccc21 [VU041],% inhibition at 10^-5 M,AmKir2.3,24.04 ± 1.92%
same,% inhibition at 10^-4 M,AmKir2.2,45.65 ± 5.01%
same,% inhibition at 10^-4 M,AmKir1.1,48.94 ± 3.79%
